Assay results published in US5723165A, “Aspartyldipeptide derivatives and sweetener compositions containing the same” (Ajinomoto Co., Inc., priority 1994, dated 1998).

Key:
[1] = Sensory evaluation of sweetness potency relative to sugar; conditions: for Sweetness Potency: Table 1, based on an aqueous solution of 4% sucrose having a sweetness potency of 1 (one); for sweetness potency value: sensory evaluation, running text
[2] = tested on: ICR male mice; conditions: oral administration of 2.0 g/kg once
[3] = Stability (survival rate) in acidic aqueous solution by HPLC; conditions: pH 3, 80° C., 7 hours, comparative compound = α-L-aspartyl-D-α-aminobutyric acid (S)-α-ethylbenzylamide
Description: With respect to stability in an acidic aqueous solution, the percentage (survival rate) of the compound still surviving in an acidic aqueous solution having a pH of 3 at 80° C. for 7 hours by HPLC was measured.

Row | SMILES | Sweetness Potency [1] | sweetness potency value [1] | other results
1 | CCOC[C@H](NC(=O)[C@H](NC(=O)[C@@H](N)CC(=O)O)C(C)C)c1ccccc1 [Example 15, α-L-aspartyl-D-valine (R)-α-ethoxymethylbenzylamide] | 500 | 500 times that of sugar | –
2 | CC[C@H](NC(=O)C1(NC(=O)[C@@H](N)CC(=O)O)CCCCC1)c1ccccc1 [α-L-aspartyl-α-aminocyclohexanecarboxylic acid (S)-α-ethylbe] | – | about 1000 times that of sugar | toxicity [2]: no problematic toxicity; stability (survival rate in an acidic aqueous solution) relative to comparative compound [3]: about 9 times that of the comparative compound
3 | CC[C@H](NC(=O)C1(NC(=O)[C@@H](N)CC(=O)O)CCCC1)c1ccccc1 [α-L-aspartyl-α-aminocyclopentanecarboxylic acid (S)-α-ethylb] | – | about 1000 times that of sugar | stability (survival rate in an acidic aqueous solution) relative to comparative compound [3]: about 10 times that of the comparative compound
4 | CC[C@@H](NC(=O)[C@@H](N)CC(=O)O)C(=O)N[C@@H](COC)c1ccccc1 [α-L-aspartyl-D-α-aminobutyric acid (R)-α-methoxymethylbenzyl] | – | about 1200 times that of sugar | –
5 | CC[C@H](NC(=O)C(NC(=O)[C@@H](N)CC(=O)O)c1ccco1)c1ccccc1 (mixture of isomers) | – | – | toxicity [2]: no problematic toxicity
6 | COC[C@H](NC(=O)C1(NC(=O)[C@@H](N)CC(=O)O)CCCCC1)c1ccccc1 [Example 13, α-L-aspartyl-α-aminocyclohexanecarboxylic acid (R)-α-methoxymethylbenzylamide] | 250 | 250 times that of sugar | –
7 | CC[C@H](NC(=O)C1(NC(=O)[C@@H](N)CC(=O)O)CCCCC1)c1ccccc1 [Example 7, α-L-aspartyl-α-aminocyclohexanecarboxylic acid (S)-α-ethylbenzylamide] | 1000 | 1000 times that of sugar | stability (survival rate in an acidic aqueous solution) relative to comparative compound [3]: about 9 times that of the comparative
8 | CC[C@@H](C)[C@@H](NC(=O)[C@@H](N)CC(=O)O)C(=O)N[C@@H](COC)c1ccccc1 [Example 17, α-L-aspartyl-D-isoleucine (R)-α-methoxymethylbenzylamide] | 500 | 500 times that of sugar | –
9 | COC[C@@H](NC(=O)[C@H](NC(=O)[C@@H](N)CC(=O)O)C(C)C)c1ccccc1 [Example 20, α-L-aspartyl-D-valine (S)-α-methoxymethylbenzylamide] | < 20 | not more than 20 times that of sugar | –
10 | CCC(NC(=O)C(NC(=O)C(N)CC(=O)O)C(C)OC)c1ccccc1 [D-Thr(Me) (S) Et Ph] | 150 | – | –
11 | CC[C@H](NC(=O)C(NC(=O)[C@@H](N)CC(=O)O)c1ccco1)c1ccccc1 (mixture of isomers) [Example 4, α-L-aspartyl-DL-furylglycine (S)-α-ethylbenzylamide] | 1200 | 1200 times that of sugar | sweetness potency value ([1]; listed as α-L-aspartyl-DL-furylglycine(S)-α-ethylbenzylamide): about 1200 times that of sugar
12 | CCC(NC(=O)C(CC(C)C)NC(=O)C(N)CC(=O)O)c1ccccc1 [D-Leu (S) Et Ph] | 100 | – | –
13 | CCC(NC(=O)C(NC(=O)C(N)CC(=O)O)C(C)CC)c1ccccc1 [D-allo-Ile (S) Et Ph] | 90 | – | –
14 | COC[C@H](NC(=O)[C@H](NC(=O)[C@@H](N)CC(=O)O)C(C)C)C(C)C [Example 19, α-L-aspartyl-D-valine (R)-α-methoxymethyl-β-methylpropylamide] | 30 | 30 times that of sugar | –
15 | COC[C@H](NC(=O)[C@H](NC(=O)[C@@H](N)CC(=O)O)[C@H](C)O)c1ccccc1 [Example 2, α-L-aspartyl-D-threonine (R)-α-methoxymethylbenzylamide] | 500 | 500 times that of sugar | –
16 | CC[C@H](NC(=O)[C@H](NC(=O)[C@@H](N)CC(=O)O)[C@H](C)CC)c1ccccc1 [Example 3, α-L-aspartyl-D-isoleucine (S)-α-ethylbenzylamide] | 500 | 500 times that of sugar | –
17 | COC[C@H](NC(=O)C(NC(=O)[C@@H](N)CC(=O)O)c1ccco1)c1ccccc1 (mixture of isomers) [Example 5, α-L-aspartyl-DL-furylglycine (R)-α-methoxymethylbenzylamide] | 1200 | 1200 times that of sugar | –
18 | COC[C@H](NC(=O)[C@H](NC(=O)[C@@H](N)CC(=O)O)c1ccccc1)c1ccccc1 [Example 12, α-L-aspartyl-D-phenylglycine (R)-α-methoxymethylbenzylamide] | 500 | 500 times that of sugar | –
19 | COC[C@@H](NC(=O)[C@H](NC(=O)[C@@H](N)CC(=O)O)C(C)C)C(C)C [Example 14, α-L-aspartyl-D-valine (S)-α-methoxymethyl-β-methylpropylamide] | 40 | 40 times that of sugar | –
20 | COC[C@H](NC(=O)C(NC(=O)[C@@H](N)CC(=O)O)c1ccco1)c1ccccc1 (mixture of isomers) [α-L-aspartyl-DL-furylglycine (R)-α-methoxymethylbenzylamide] | – | about 1200 times that of sugar | toxicity [2]: no problematic toxicity
21 | CC[C@H](NC(=O)C(C)(CC)NC(=O)[C@@H](N)CC(=O)O)c1ccccc1 (mixture of isomers) [Example 10, α-L-aspartyl-DL-isovaline (S)-α-ethylbenzylamide] | 100 | 100 times that of sugar | –
22 | COC[C@H](NC(=O)[C@H](NC(=O)[C@@H](N)CC(=O)O)C(C)C)c1ccccc1 [α-L-aspartyl-D-valine (R)-α-methoxymethylbenzylamide] | – | about 1300 times that of sugar | toxicity [2]: no problematic toxicity
23 | CC[C@H](NC(=O)C(CC)(CC)NC(=O)[C@@H](N)CC(=O)O)c1ccccc1 [Example 9, α-L-aspartyl-α,α-diethylglycine (S)-α-ethylbenzylamide] | 200 | 1000 times that of sugar | –
24 | COC[C@H](NC(=O)[C@@H](C)NC(=O)[C@@H](N)CC(=O)O)c1ccccc1 [Example 18, α-L-aspartyl-D-alanine (R)-α-methoxymethylbenzylamide] | 300 | 300 times that of sugar | –
25 | CC[C@H](NC(=O)[C@H](NC(=O)[C@@H](N)CC(=O)O)[C@H](C)O)c1ccccc1 [Example 1, α-L-aspartyl-D-threonine (S)-α-ethylbenzylamide] | 1300 | 1300 times that of sugar | toxicity [2]: no problematic toxicity; sweetness potency value ([1]; listed as α-L-aspartyl-D-threonine(S)-α-ethylbenzylamide): about 1300 times that of sugar
26 | COC[C@H](NC(=O)[C@H](NC(=O)[C@@H](N)CC(=O)O)C(C)C)c1ccccc1 [Example 11, α-L-aspartyl-D-valine (R)-α-methoxymethylbenzylamide] | 1300 | 1300 times that of sugar | –
27 | CC[C@H](NC(=O)C1(NC(=O)[C@@H](N)CC(=O)O)CCCC1)c1ccccc1 [Example 6, α-L-aspartyl-α-aminocyclopentanecarboxylic acid (S)-α-ethylbenzylamide] | 1000 | 1000 times that of sugar | stability (survival rate in an acidic aqueous solution) relative to comparative compound [3]: about 10 times that of the comparative
28 | CC[C@@H](NC(=O)[C@@H](N)CC(=O)O)C(=O)N[C@@H](COC)c1ccccc1 [Example 16, α-L-aspartyl-D-α-aminobutyric acid (R)-α-methoxymethylbenzylamide] | 1200 | 1200 times that of sugar | –
